Like-named read-outs stand apart in the source and are kept apart here.
Columns and labels:
[1] = target: HEK293 membranes over-expressing WFS-1 (Homo sapiens (Human), UniProt O76024); test: Radioligand displacement assay (tritiated Compound 136 probe); format: binding; details: displacement of tritiated Compound 136
Summary of the method: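 WFS-1-overexpressing HEK293 membranes were preincubated 10 min with compound, then tritiated probe was added for 90 min at room temperature. Bound probe was collected by filtration on PEI-pretreated GF/B filters, washed and scintillation-counted. IC50 came from a 3-parameter fit of bound probe vs compound concentration.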

[2] = system: β-catenin-TCF-mediated reporter transcription activity in Colo 205 cells; test: Colo 205 reporter assay (TCF/LEF luciferase); format: cell-based; details: five hours after addition of compound
Summary of the method: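 Luciferase signal from a TCF/LEF-driven reporter, stably integrated in Colo 205 colon cancer cells, was measured 5 h after compound addition.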

Colo-205 cells = test: Calcium flux assay (FLIPR Calcium 5); format: cell-based; details: Homo sapiens, COLO 205, 0.6 h, FLIPR Calcium 5, measured over 36 minutes
Procedure: Compounds described herein induced ER stress by causing intracellular calcium flux. Calcium flux was measured in Colo-205 cells using the FLTPR® Calcium 5 Assay Kit according to manufacter's protocol (Molecular Devices, Cat. #R8186) on a FLIPR3 system (Molecular Devices). Calcium flux is measured over 36 minutes. The Colo-205 calcium flux assay data are summarized in Table 47: A<0.6 μM; 0.6 μM≤B<2.0 μM; 2.0 μM≤C<10.0 μM; D≥10.0 μM.

[3] = Homo sapiens, COLO 205, 5 h, Colo 205 TCF/LEF luciferase reporter, read-out: TCF reporter Colo205 IC50

HEK293 membranes over-expressing WFS-1, sequence (O76024 whole entry): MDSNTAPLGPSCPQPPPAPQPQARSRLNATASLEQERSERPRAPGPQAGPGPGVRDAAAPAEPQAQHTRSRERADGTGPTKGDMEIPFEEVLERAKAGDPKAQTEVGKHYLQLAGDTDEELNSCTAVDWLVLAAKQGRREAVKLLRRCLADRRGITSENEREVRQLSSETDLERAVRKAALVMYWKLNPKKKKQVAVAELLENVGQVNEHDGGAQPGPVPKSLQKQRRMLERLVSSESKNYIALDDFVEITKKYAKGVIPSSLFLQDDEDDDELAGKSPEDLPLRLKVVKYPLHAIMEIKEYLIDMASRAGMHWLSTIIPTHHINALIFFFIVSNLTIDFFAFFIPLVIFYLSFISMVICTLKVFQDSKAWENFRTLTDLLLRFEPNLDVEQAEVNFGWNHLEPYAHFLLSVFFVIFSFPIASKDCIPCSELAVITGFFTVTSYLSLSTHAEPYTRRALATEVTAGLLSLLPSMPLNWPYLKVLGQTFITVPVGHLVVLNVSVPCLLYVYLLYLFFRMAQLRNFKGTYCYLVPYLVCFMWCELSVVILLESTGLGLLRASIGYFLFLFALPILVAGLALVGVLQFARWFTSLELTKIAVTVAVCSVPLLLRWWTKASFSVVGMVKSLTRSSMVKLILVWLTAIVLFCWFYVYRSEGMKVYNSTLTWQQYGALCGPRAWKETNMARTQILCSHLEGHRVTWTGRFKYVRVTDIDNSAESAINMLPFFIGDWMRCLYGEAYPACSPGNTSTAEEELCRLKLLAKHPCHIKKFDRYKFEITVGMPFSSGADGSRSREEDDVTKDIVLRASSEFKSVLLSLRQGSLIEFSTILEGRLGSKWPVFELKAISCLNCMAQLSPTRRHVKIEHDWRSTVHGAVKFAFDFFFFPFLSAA

Row | Compound | IC50 [1] [nM] | IC50 [2, 3] [nM] | EC50 (Colo-205 cells) [nM] | IC50 ([2]; Homo sapiens, COLO 205, 5 h, Colo 205 cells with stably transfected TCF/LEF luciferase reporter, read-out: TCF reporter Colo205) [nM] | IC50 ([2]; Colo 205 TCF/LEF luciferase reporter, read-out: TCF reporter Colo205 IC50) [nM]
1 | Cc1nc(NCc2cnn(CC3CCC3)c2)nc2c1N(C)C(=O)[C@H](C)N2C [Compound 7, (7S)-2-(((1-(cyclobutylmethyl)-1H-pyrazol-4-yl)methyl)amino)-4,5,7,8-tetramethyl-7,8-dihydropteridin-6(5H)-one] | 60 to 600 | 300 to 1000 | 600 to 2000 |  | 
2 | Cc1nc(NCc2cnn([C@H]3CCN(C4CCC(F)(F)CC4)C3)c2)nc2c1NC(=O)[C@H](C)N2C [Compound 142, (7S)-2-(((1-((S)-1-(4,4-difluorocyclohexyl)pyrrolidin-3-yl)-1H-pyrazol-4-yl)methyl)amino)-4,7,8-trimethyl-7,8-dihydropteridin-6(5H)-one] | 60 to 600 | 300 to 1000 | 600 to 2000 |  | 
3 | Cc1nc(N[C@H]2C[C@H](Oc3ccc(F)nc3)C2)nc2c1NC(=O)[C@H](C)N2C [Compound 357, (7S)-2-((trans-3-((6-fluoropyridin-3-yl)oxy)cyclobutyl)amino)-4,7,8-trimethyl-7,8-dihydropteridin-6(5H)-one] | 60 to 600 | 1000 to 5000 | 600 to 2000 |  | 
4 | Cc1nc(N[C@H]2CC[C@H](n3ccc(C(F)(F)F)n3)C2)nc2c1NC(=O)[C@H](C)N2C (single isomer, unassigned) [Compound 310] | 600 to 3000 | 1000 to 5000 | 2000 to 10000 |  | 
5 | Cc1nc(NCc2cnn(C3CCN(C(=O)c4ccc(F)cc4)CC3)c2)nc2c1NC(=O)[C@H](C)N2C [Compound 125, (7S)-2-(((1-(1-(4-Fluorobenzoyl)piperidin-4-yl)-1H-pyrazol-4-yl)methyl)amino)-4,7,8-trimethyl-7,8-dihydropteridin-6(5H)-one] | 60 to 600 | 1000 to 5000 | 2000 to 10000 |  | 
6 | Cc1nc(NCc2cnn(CCc3ccc(F)cc3)c2)nc2c1N(C)C(=O)[C@H](C)N2C [Compound 8, (7S)-2-(((1-(4-fluorophenethyl)-1H-pyrazol-4-yl)methyl)amino)-4,5,7,8-tetramethyl-7,8-dihydropteridin-6(5H)-one] | 600 to 3000 | 300 to 1000 | 2000 to 10000 |  | 
7 | CC[C@H]1C(=O)Nc2cnc(NCc3cnn(Cc4ccc(C(F)(F)F)nc4)c3)nc2N1C [Compound 427, (7S)-7-ethyl-8-methyl-2-(((1-((6-(trifluoromethyl)pyridin-3-yl)methyl)-1H-pyrazol-4-yl)methyl)amino)-7,8-dihydropteridin-6(5H)-one] | < 60 | 300 to 1000 | 600 to 2000 |  | 
8 | Cc1nc(N[C@H]2C[C@H](Sc3cc(F)c(F)c(F)c3)C2)nc2c1NC(=O)[C@H](C)N2C [Compound 329, (7S)-4,7,8-trimethyl-2-((trans-3-((3,4,5-trifluorophenyl)thio)-cyclobutyl)amino)-7,8-dihydropteridin-6(5H)-one] | 60 to 600 | < 300 | 600 to 2000 |  | 
9 | CN1C(=O)C(C)(C)N(C)c2nc(NCc3cnn(Cc4cccnc4C(F)(F)F)c3)ncc21 [Compound 237, 5,7,7,8-Tetramethyl-2-(((1-((2-(trifluoromethyl)pyridin-3-yl)methyl)-1H-pyrazol-4-yl)methyl)amino)-7,8-dihydropteridin-6(5H)-one] | 60 to 600 | 300 to 1000 | 600 to 2000 |  | 
10 | Cc1nc(N[C@H]2C[C@H](Sc3ccc(F)cc3)C2)nc2c1N(C)C(=O)[C@H](C)N2C [Compound 307, (7S)-2-((trans-3-((4-fluorophenyl)thio)cyclobutyl)amino)-4,5,7,8-tetramethyl-7,8-dihydropteridin-6(5H)-one] | 60 to 600 | 1000 to 5000 | 600 to 2000 |  | 
11 | Cc1nc(N[C@H]2CC[C@H](Oc3ccc(C(F)(F)F)nc3)C2)nc2c1NC(=O)[C@H](C)N2C (single isomer, unassigned) [Compound 376] | 60 to 600 |  | 600 to 2000 |  | 1000 to 5000
12 | Cc1nc(NCc2cnn(CCC3CCOCC3)c2)nc2c1NC(=O)[C@H](C)N2C [Compound 115, (7S)-4,7,8-trimethyl-2-(((1-(2-(tetrahydro-2H-pyran-4-yl)ethyl)-1H-pyrazol-4-yl)methyl)amino)-7,8-dihydropteridin-6(5H)-one] | 600 to 3000 | 1000 to 5000 | 2000 to 10000 |  | 
13 | Cc1nc(NCc2cnn(Cc3ccc(F)cc3)c2)nc2c1NC(=O)C1(CC1)N2 [Compound 222, 2′-(((1-(4-fluorobenzyl)-1H-pyrazol-4-yl)methyl)amino)-4′-methyl-5′,8′-dihydro-6′H-spiro[cyclopropane-1,7′-pteridin]-6′-one] | 600 to 3000 | ≥ 5000 | 2000 to 10000 |  | 
14 | Cc1nc(N[C@H]2C[C@@H](Sc3ccc(F)cc3)C2)nc2c1N(C)C(=O)[C@H](C)N2C [Compound 305, (7S)-2-((cis-3-((4-fluorophenyl)thio)cyclobutyl)amino)-4,5,7,8-tetramethyl-7,8-dihydropteridin-6(5H)-one] | 60 to 600 | 300 to 1000 | 600 to 2000 |  | 
15 | Cc1nc(N[C@H]2C[C@@H](Sc3cc(F)c(F)c(F)c3)C2)nc2c1NC(=O)[C@H](C)N2C [Compound 332, (7S)-4,7,8-trimethyl-2-((cis-3-((3,4,5-trifluorophenyl)thio)cyclobutyl)amino)-7,8-dihydropteridin-6(5H)-one] | 60 to 600 | < 300 | 600 to 2000 |  | 

Continued, values first:

Row | IC50 [1] [nM] | IC50 [2, 3] [nM] | EC50 (Colo-205 cells) [nM] | IC50 ([2]; Homo sapiens, COLO 205, 5 h, Colo 205 cells with stably transfected TCF/LEF luciferase reporter, read-out: TCF reporter Colo205) [nM] | IC50 ([2]; Colo 205 TCF/LEF luciferase reporter, read-out: TCF reporter Colo205 IC50) [nM] | Compound
16 | < 60 | < 300 | < 600 |  |  | Cc1nc(NCc2cnn(Cc3cc(F)c(F)c(F)c3)c2)nc2c1NC(=O)[C@H](C)N2C [Compound 122, (7S)-4,7,8-trimethyl-2-(((1-(3,4,5-trifluorobenzyl)-1H-pyrazol-4-yl)methyl)amino)-7,8-dihydropteridin-6(5H)-one]
17 | 60 to 600 | < 300 | 600 to 2000 |  |  | Cc1nc(NCc2cnn(Cc3ccc(F)nc3)c2)nc2c1NC(=O)[C@H](C(C)C)N2C [Compound 384, (7S)-2-(((1-((6-fluoropyridin-3-yl)methyl)-1H-pyrazol-4-yl)methyl)amino)-7-isopropyl-4,8-dimethyl-7,8-dihydropteridin-6(5H)-one]
18 | 60 to 600 | < 300 | < 600 |  |  | Cc1nc(NCc2cnn(Cc3ccc(C(F)(F)F)cc3)c2)nc2c1NC(=O)[C@H](C)N2C [Compound 149, (7S)-4,7,8-trimethyl-2-(((1-(4-(trifluoromethyl)benzyl)-1H-pyrazol-4-yl)methyl)amino)-7,8-dihydropteridin-6(5H)-one]
19 | 60 to 600 | < 300 | 600 to 2000 |  |  | Cc1nc(NCc2cnn(Cc3ccc(C(F)(F)F)nc3)c2)nc2c1NC(=O)[C@H](C1CC1)N2C [Compound 386, (7S)-7-Cyclopropyl-4,8-dimethyl-2-(((1-((6-(trifluoromethyl)pyridin-3-yl)methyl)-1H-pyrazol-4-yl)methyl)amino)-7,8-dihydropteridin-6(5H)-one]
20 | ≥ 3000 |  | ≥ 10000 | ≥ 5000 |  | Cc1nc(N(C)Cc2cnn(Cc3ccc(C(F)(F)F)nc3)c2)nc2c1NC(=O)[C@H](C)N2C [Compound 403, (7S)-4,7,8-trimethyl-2-(methyl((1-((6-(trifluoromethyl)pyridin-3-yl)methyl)-1H-pyrazol-4-yl)methyl)amino)-7,8-dihydropteridin-6(5H)-one]
21 | 60 to 600 | 300 to 1000 | 600 to 2000 |  |  | Cc1nc(NCc2cnn(CCc3ccc(F)cc3)c2)nc2c1NC(=O)[C@H](C)N2C [Compound 6, (7S)-2-(((1-(4-fluorophenethyl)-1H-pyrazol-4-yl)methyl)amino)-4,7,8-trimethyl-7,8-dihydropteridin-6(5H)-one]
22 | 60 to 600 | < 300 | 600 to 2000 |  |  | Cc1cc(F)ncc1Cn1cc(CNc2nc(C)c3c(n2)N(C)[C@@H](C(C)C)C(=O)N3)cn1 [Compound 423, (7S)-2-(((1-((6-fluoro-4-methylpyridin-3-yl)methyl)-1H-pyrazol-4-yl)methyl)amino)-7-isopropyl-4,8-dimethyl-7,8-dihydropteridin-6(5H)-one]
23 | 60 to 600 | < 300 | 2000 to 10000 |  |  | Cc1nc(NCc2cnn(Cc3ccc(C(F)(F)F)nc3[C@@H](C)O)c2)nc2c1NC(=O)[C@H](C)N2C (single isomer, unassigned) [Compound 420]
24 | 60 to 600 | 300 to 1000 | 2000 to 10000 |  |  | Cc1nc(NCc2ccc(-n3cc(C(F)(F)F)cn3)nc2)nc2c1NC(=O)[C@H](C)N2C [Compound 143, (S)-4,7,8-trimethyl-2-(((6-(4-(trifluoromethyl)-1H-pyrazol-1-yl)pyridin-3-yl)methyl)amino)-7,8-dihydropteridin-6(5H)-one]
25 | 60 to 600 | < 300 | 600 to 2000 |  |  | Cc1cc(F)ncc1Cn1cc(CNc2nc(C)c3c(n2)N(C)[C@@H](C)C(=O)N3)cn1 [Compound 94, (7S)-2-(((1-((6-fluoro-4-methylpyridin-3-yl)methyl)-1H-pyrazol-4-yl)methyl)amino)-4,7,8-trimethyl-7,8-dihydropteridin-6(5H)-one]
